Results published in ChEMBL document CHEMBL3352700 (Bioorg Med Chem Lett, 2015).

Assays:
[1] = Effective permeability by PAMPA method; format: ADME; conditions: read-out: Peff
[2] = AUC (infinity) in Beagle Marshall dog at 1 mg/kg, po administered as single dose; format: ADME, organism-based, Canis lupus familiaris; design: time infinity, dose 1 mg/kg, route oral; conditions: plasma
Rattus norvegicus [3] = experiment: Volume of distribution at steady state in IGS rat at 3 mg/kg, po administered as single dose; format: ADME, organism-based; design: dose 3 mg/kg, route oral; conditions: in vivo
[4] = Volume of distribution at steady state in Beagle Marshall dog at 1 mg/kg administered as single dose; format: ADME, organism-based, Canis lupus familiaris; design: dose 1 mg/kg; conditions: in vivo, read-out: Vdss
[5] = Oral bioavailability in Beagle Marshall dog at 1 mg/kg administered as single dose; format: ADME, organism-based, Canis lupus familiaris; conditions: in vivo
[6] = Cmax in Beagle Marshall dog at 1 mg/kg, po administered as single dose; format: ADME, organism-based, Canis lupus familiaris; design: dose 1 mg/kg, route oral; conditions: in vivo
[7] = Oral bioavailability in IGS rat at 3 mg/kg administered as single dose; format: ADME, organism-based; conditions: in vivo
[8] = Cmax in rat at 300 mg/kg, po; format: ADME, organism-based; design: dose 300 mg/kg, route oral; conditions: in vivo
[9] = Cmax in IGS rat at 3 mg/kg, po administered as single dose; format: ADME, organism-based; design: dose 3 mg/kg, route oral; conditions: in vivo
Rattus norvegicus [10] = experiment: AUC (infinity) in IGS rat at 3 mg/kg, po administered as single dose; format: ADME, organism-based, Plasma; design: time infinity, dose 3 mg/kg, route oral; conditions: in vivo
[11] = AUC (infinity) in IGS rat at 1 mg/kg, iv administered as single dose; format: ADME, organism-based; design: time infinity, dose 1 mg/kg, route intravenous; conditions: plasma

SMILES: CN(C)CCn1c(CC(C)(C)C)nc2cc(S(=O)(=O)C3CN(C(N)=O)C3)ccc21
- Papp [1]: 0.6 ×10⁻⁶ cm/s

SMILES: CN(C)CCn1c(CC(C)(C)C)nc2cc(S(=O)(=O)C3CN(C)C3)ccc21
- Papp [1]: 7.8 ×10⁻⁶ cm/s

SMILES: CCN1CC(S(=O)(=O)c2ccc3c(c2)nc(CC(C)(C)C)n3CCN(C)C)C1
- Papp [1]: 10 ×10⁻⁶ cm/s

SMILES: CN(C)CCn1c(CC(C)(C)C)nc2cc(S(=O)(=O)C3CN(CC(F)(F)F)C3)ccc21
- Papp [1]: 18 ×10⁻⁶ cm/s

SMILES: CN(C)CCn1c(CC(C)(C)C)nc2cc(S(=O)(=O)C3CN(CCO)C3)ccc21
- AUC(0-inf) [2]: 1000 ng·h/mL
- Vdss (Rattus norvegicus [3]): 5696 mL/kg
- Papp [1]: 1.5 ×10⁻⁶ cm/s
- Vd [4]: 5.69 L/kg
- bioavailability [5]: 72%
- Cmax [6]: 102 ng/mL
- bioavailability [7]: 20%
- Cmax [8]: 1800 ng/mL
- Cmax [9]: 38 ng/mL
- AUC (Rattus norvegicus [10]): 300 ng·h/mL
- AUC(0-inf) [11]: 391 ng·h/mL

SMILES: CN(C)CCn1c(CC(C)(C)C)nc2cc(S(=O)(=O)C3CN(S(C)(=O)=O)C3)ccc21
- Papp [1]: 5.9 ×10⁻⁶ cm/s
